What all share (assay type): biochemical
Experiment [1] deals with human JAK1 (a.a. 837-1142). Description: In vitro JAK kinase assay (HTRF, phosphorylation of a biotinylated peptide), JAK1. The note with it: measured at 1 mM ATP; JAK2 IC50 / JAK1 IC50. The method in brief: (§1)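 Phosphorylation of a biotinylated peptide by purified His-tagged JAK catalytic domains (insect-cell baculovirus expression) ran 1 hr at room temperature. After stopping with EDTA, Eu-Py20 and SA-APC were bound for 40 minutes and HTRF measured.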
For orientation: In TR-FRET formats the signal depends on donor and acceptor labels being close together.

The target of experiment [2] is human JAK1 (a.a. 837-1142) (Homo sapiens, UniProt P23458). Described as above. The note with it: measured at 1 mM ATP. The method in brief:
as §1

In experiment [3] the target is human Jak2 (a.a. 828-1132) (Homo sapiens (Human), UniProt O60674). Description: In vitro JAK kinase assay (HTRF, phosphorylation of a biotinylated peptide), JAK2. The conditions noted are these: measured at 1 mM ATP. Here is the method: Compounds herein were tested for inhibitory activity of JAK targets according to the following in vitro assay described in Park et al., Analytical Biochemistry 1999, 269, 94-104. The catalytic domains of human JAK1 (a.a. 837-1142), Jak2 (a.a. 828-1132) and Jak3 (a.a. 781-1124) with an N-terminal His tag were expressed using baculovirus in insect cells and purified. The catalytic activity of JAK1, JAK2 or JAK3 was assayed by measuring the phosphorylation of a biotinylated peptide. The phosphorylated peptide was detected by homogenous time resolved fluorescence (HTRF). […] Reactions were carried out at room temperature for 1 hr and then stopped with 20 μL 45 mM EDTA, 300 nM SA-APC, 6 nM Eu-Py20 in assay buffer (Perkin Elmer, Boston, Mass.). Binding to the Europium labeled antibody took place for 40 minutes and HTRF signal was measured on a Fusion plate reader (Perkin Elmer, Boston, Mass.).

pIC50: −log10 of the molar value. A value given as a limit tells only on which side of the number the result lay.

This note sets out measurements from US10695337B2, “Piperidin-4-yl azetidine derivatives as JAK1 inhibitors” (Incyte Corporation, priority 2010, dated 2020).

Chain of human Jak2 (a.a. 828-1132) (O60674 828-1132): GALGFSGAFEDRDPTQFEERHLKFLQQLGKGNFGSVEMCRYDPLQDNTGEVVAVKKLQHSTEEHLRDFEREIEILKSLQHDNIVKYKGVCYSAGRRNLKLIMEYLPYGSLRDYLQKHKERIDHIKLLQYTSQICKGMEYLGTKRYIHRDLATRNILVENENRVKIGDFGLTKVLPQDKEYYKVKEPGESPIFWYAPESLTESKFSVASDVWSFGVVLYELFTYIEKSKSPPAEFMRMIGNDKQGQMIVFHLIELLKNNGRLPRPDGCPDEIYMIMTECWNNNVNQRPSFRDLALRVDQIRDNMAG

Usually pIC50 stands for −log10 of the IC50, conventionally taken in molar units. Higher therefore signals a small IC50. As for `CC1CC(N2CC(CC#N)(n3cc(-c4ncnc5[nH]ccc45)cn3)C2)CCN1Cc1ccc(N(C)C)c(C#N)c1F` (single isomer, unassigned) [Example 243, 3-[(4-{3-(cyanomethyl)-3-[4-(7H-pyrrolo[2,3-d]pyrimidin-4-yl)-1H-pyrazol-1-yl]azetidin-1-yl}-2-methylpiperidin-1-yl)methyl]-6-(dimethylamino)-2-fluorobenzonitrile], in experiment [1], the “IC50 Ratio JAK2/JAK1” value came to 6.4. Also, the results for the pIC50 in experiment [2] and in experiment [3] were 7.52 to 7.70 and below 7.00, respectively.

For `N#CCC1(n2cc(-c3ncnc4[nH]ccc34)cn2)CN(C2CCN(C(=O)c3ccc(-c4cccc5cccnc45)c(F)c3)CC2)C1` [Example 132, {1-[1-(3-fluoro-4-quinolin-8-ylbenzoyl)piperidin-4-yl]-3-[4-(7H-pyrrolo[2,3-d]pyrimidin-4-yl)-1H-pyrazol-1-yl]azetidin-3-yl} acetonitrile], in experiment [1], the “IC50 Ratio JAK2/JAK1” value is on record as 5.8. Also, the pIC50 in experiment [2] was at least 8.30.

Consider `CC1CC(N2CC(CC#N)(n3cc(-c4ncnc5[nH]ccc45)cn3)C2)CCN1C(=O)c1cccc(F)c1` (single isomer, unassigned) [Example 150, {1-[1-(3-fluorobenzoyl)-2-methylpiperidin-4-yl]-3-[4-(7H-pyrrolo[2,3-d]pyrimidin-4-yl)-1H-pyrazol-1-yl]azetidin-3-yl}acetonitrile], for which the “IC50 Ratio JAK2/JAK1” value in experiment [1] is on record as 7.0. For the same molecule, the pIC50 in experiment [3] is at least 8.00.

Consider `CC1CC(N2CC(CC#N)(n3cc(-c4ncnc5[nH]ccc45)cn3)C2)CCN1Cc1ccc(N(C)C)c(C#N)c1F` (single isomer, unassigned) [Example 242, 3-[(4-{3-(cyanomethyl)-3-[4-(7H-pyrrolo[2,3-d]pyrimidin-4-yl)-1H-pyrazol-1-yl]azetidin-1-yl}-2-methylpiperidin-1-yl)methyl]-6-(dimethylamino)-2-fluorobenzonitrile], for which the “IC50 Ratio JAK2/JAK1” value in experiment [1] was determined as 8.3. Moreover, the values for the pIC50 in experiment [2] and in experiment [3] were at least 8.30 and 7.30 to 8.00, respectively.

Take `CS(=O)(=O)N1CCC(N2CC(CC#N)(n3cc(-c4c(C#N)cnc5[nH]ccc45)cn3)C2)CC1` [Example 357, 4-(1-{3-(Cyanomethyl)-1-[1-(methylsulfonyl)piperidin-4-yl]azetidin-3-yl}-1H-pyrazol-4-yl)-1H-pyrrolo[2,3-b]pyridine-5-carbonitrile]: the “IC50 Ratio JAK2/JAK1” value in experiment [1] turned out to be 3.8.

For the molecule `CN(C)Cc1cc(C(=O)N2CCC(N3CC(CC#N)(n4cc(-c5ncnc6[nH]ccc56)cn4)C3)CC2)nc(C(F)(F)F)n1` [Example 370, {1-(1-{[6-[(dimethylamino)methyl]-2-(trifluoromethyl)pyrimidin-4-yl]carbonyl}piperidin-4-yl)-3-[4-(7H-pyrrolo[2,3-d]pyrimidin-4-yl)-1H-pyrazol-1-yl]azetidin-3-yl}acetonitrile], the “IC50 Ratio JAK2/JAK1” value in experiment [1] was determined as 55.

Regarding `N#CCC1(n2cc(-c3ncnc4[nH]ccc34)cn2)CN(C2CCN(C(=O)c3ccc(-c4ccccc4C#N)c(F)c3)CC2)C1` [Example 124, 4′-[(4-{3-(cyanomethyl)-3-[4-(7H-pyrrolo[2,3-d]pyrimidin-4-yl)-1H-pyrazol-1-yl]azetidin-1-yl}piperidin-1-yl)carbonyl]-2′-fluorobiphenyl-2-carbonitrile], the “IC50 Ratio JAK2/JAK1” value in experiment [1] turned out to be 8.4.

Turning to `N#CCC1(n2cc(-c3c(C#N)cnc4[nH]ccc34)cn2)CN(C2CCN(C(=O)c3cc(C(F)(F)F)ncc3Cl)CC2)C1` [Example 341, 4-{1-[1-{1-[5-chloro-2-(trifluoromethyl)isonicotinoyl]piperidin-4-yl}-3-(cyanomethyl)azetidin-3-yl]-1H-pyrazol-4-yl}-1H-pyrrolo[2,3-b]pyridine-5-carbonitrile], the “IC50 Ratio JAK2/JAK1” value in experiment [1] was found to be 3.2.

On to `N#CCC1(n2cc(-c3ncnc4[nH]ccc34)cn2)CN(C2CCN(C(=O)c3cnccn3)CC2)C1` [Example 14, {1-[1-(pyrazin-2-lcarbonyl)piperidin-4-yl]-3-[4-(7H-pyrrolo[2,3-d]pyrimidin-4-yl)-1H-pyrazol-1-yl]azetidin-3-l}acetonitrile], for which the “IC50 Ratio JAK2/JAK1” value in experiment [1] stood at 3.2.

Regarding `N#CCC1(n2cc(-c3ccnc4[nH]ccc34)cn2)CN(C2CCN(C(=O)c3nc(C(F)(F)F)cs3)CC2)C1` [Example 350, [3-[4-(1H-Pyrrolo[2,3-b]pyridin-4-yl)-1H-pyrazol-1-yl]-1-(1-{[4-(trifluoromethyl)-1,3-thiazol-2-yl]carbonyl}piperidin-4-yl)azetidin-3-yl]acetonitrile], the “IC50 Ratio JAK2/JAK1” value in experiment [1] was found to be 15.0.

On to `N#CCC1(n2cc(-c3ncnc4[nH]ccc34)cn2)CN(C2CCN(C(=O)c3ccc(-c4ccc5nccn5c4)c(F)c3)CC2)C1` [Example 135, {1-[1-(3-fluoro-4-imidazo[1,2-a]pyridin-6-ylbenzoyl)piperidin-4-yl]-3-[4-(7H-pyrrolo[2,3-d]pyrimidin-4-yl)-1H-pyrazol-1-yl]azetidin-3-yl} acetonitrile], for which, in experiment [1], the “IC50 Ratio JAK2/JAK1” value worked out at 7.1.

In the case of `N#CCC1(n2cc(-c3ncnc4[nH]ccc34)cn2)CN(C2CCN(C(=O)Nc3nc4ccccc4s3)CC2)C1` [Example 193, N-1,3-benzothiazol-2-yl-4-{3-(cyanomethyl)-3-[4-(7H-pyrrolo[2,3-d]pyrimidin-4-yl)-1H-pyrazol-1-yl]azetidin-1-yl}piperidine-1-carboxamide], the “IC50 Ratio JAK2/JAK1” value in experiment [1] came out at 0.5.

Take `CN(C)c1ccc(C(=O)N2CCC(N3CC(CC#N)(n4cc(-c5ncnc6[nH]ccc56)cn4)C3)CC2)c(F)c1C#N` [Example 51, 3-[(4-{3-(cyanomethyl)-3-[4-(7H-pyrrolo[2,3-d]pyrimidin-4-yl)-1H-pyrazol-1-yl]azetidin-1-yl}piperidin-1yl)carbonyl]-6-(dimethylamino)-2-fluorobenzonitrile]: the “IC50 Ratio JAK2/JAK1” value in experiment [1] is 6.3.

As for `N#CCC1(n2cc(-c3c(C#N)cnc4[nH]ccc34)cn2)CN(C2CCN(C(=O)c3cc(C(F)(F)F)ncc3F)CC2)C1` [Example 356, 4-[1-(3-(Cyanomethyl)-1-{1-[5-fluoro-2-(trifluoromethyl)isonicotinoyl]piperidin-4-yl}azetidin-3-yl)-1H-pyrazol-4-yl]-1H-pyrrolo[2,3-b]pyridine-5-carbonitrile], the “IC50 Ratio JAK2/JAK1” value in experiment [1] is on record as 5.8.

Regarding `CC1CC(N2CC(CC#N)(n3cc(-c4ncnc5[nH]ccc45)cn3)C2)CCN1C(=O)c1cccc(F)c1` (single isomer, unassigned) [Example 149, {1-[1-(3-fluorobenzoyl)-2-methylpiperidin-4-yl]-3-[4-(7H-pyrrolo[2,3-d]pyrimidin-4-yl)-1H-pyrazol-1-yl]azetidin-3-yl}acetonitrile], the “IC50 Ratio JAK2/JAK1” value in experiment [1] came to 5.0. The molecule further had a pIC50 in experiment [3] of 7.30 to 8.00.

As to `N#CCC1(n2ccc(-c3ncnc4[nH]ccc34)c2)CN(C2CCN(C(=O)c3nc(C(F)(F)F)cs3)CC2)C1` [Example 346, [3-[3-(7H-Pyrrolo[2,3-d]pyrimidin-4-yl)-1H-pyrrol-1-yl]-1-(1-{[4-(trifluoromethyl)-1,3-thiazol-2-yl]carbonyl}piperidin-4-yl)azetidin-3-yl]acetonitrile], the “IC50 Ratio JAK2/JAK1” value in experiment [1] is reported as 5.9.

With `N#CCC1(n2cc(-c3ncnc4[nH]ccc34)cn2)CN(C2CCN(C(=O)c3ccc(-c4ccc5cccnc5c4)c(F)c3)CC2)C1` [Example 134, {1-[1-(3-fluoro-4-quinolin-7-ylbenzoyl)piperidin-4-yl]-3-[4-(7H-pyrrolo[2,3-d]pyrimidin-4-yl)-1H-pyrazol-1-yl]azetidin-3-yl} acetonitrile], the “IC50 Ratio JAK2/JAK1” value in experiment [1] is listed as 6.7.

As to `N#CCC1(n2cc(-c3ccnc4[nH]ccc34)cn2)CN(C2CCN(C(=O)Nc3ccc(C#N)cc3F)CC2)C1` [Example 312, N-(4-cyano-2-fluorophenyl)-4-{3-(cyanomethyl)-3-[4-(1H-pyrrolo[2,3-b]pyridin-4-yl)-1H-pyrazol-1-yl]azetidin-1-yl}piperidine-1-carboxamide], the “IC50 Ratio JAK2/JAK1” value in experiment [1] was 5.3.

`COc1ccccc1NC(=O)N1CCC(N2CC(CC#N)(n3cc(-c4ncnc5[nH]ccc45)cn3)C2)CC1` [Example 180, 4-{3-(cyanomethyl)-3-[4-(7H-pyrrolo[2,3-d]pyrimidin-4-yl)-1H-pyrazol-1-yl]azetidin-1-yl}-N-(2-methoxyphenyl)piperidine-1-carboxamide]: in experiment [1], the “IC50 Ratio JAK2/JAK1” value turned out to be 4.0.
